Experimental data as given in patent publication US7595401B2, “Therapeutic compounds and their use in cancer” (Myriad Pharmaceuticals, Inc., priority 2006, dated 2009).

Molecular target: purified human Hsp90
Assay: Binding Assay: fluorescence polarization with BODIPY-labeled geldanamycin
Details: BODIPY-GM 10 nM, Hsp90 30 nM
Method in brief: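 Compounds in 2% DMSO final compete with 10 nM BODIPY-GM for 30 nM purified human Hsp90, incubated overnight at room temperature in pH 7.3 HEPES buffer containing Na2MoO4 and DTT. Polarization (mP, ex/em 485/530) normalized to DMSO gives percent inhibition; autofluorescence-confounded data excluded.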

SMILES | IC50 [nM] | % Inhibition at 5 μM Compound Concentration [%]
Nc1ncnc2c1nc(Sc1cc3c(cc1Br)OCO3)n2CCC12CC3CC(CC(C3)C1)C2 [Example 356, 9-[2-(1-Adamantyl)ethyl]-8-[(6-bromo-1,3-benzodioxol-5-yl)thio]-9H-purin-6-amine] | > 25000 | 
COc1ccc(OC)c(Sc2nc3c(N)ncnc3n2CCC2CCN(C=O)CC2)c1 [Example 358, 4-(2-{6-Amino-8-[(2,5-dimethoxyphenyl)thio]-9H-purin-9-yl}ethyl)piperidine-1-carbaldehyde] | 450 | 
COc1ccc(OC)c(Sc2nc3c(N)ncn(CCC4CCN(C=O)CC4)c-3n2)c1 [Example 359, 4-(2-{6-Amino-8-[(2,5-dimethoxyphenyl)thio]-3H-purin-3-yl}ethyl)piperidine-1-carbaldehyde] |  | 3
COc1ccc(OC)c(Sc2nc3c(N)ncn(CCC4CC(C)(C)NC(C)(C)C4)c-3n2)c1 [Example 360, 8-[(2,5-Dimethoxyphenyl)thio]-3-[2-(2,2,6,6-tetramethylpiperidin-4-yl)ethyl]-3H-purin-6-amine] |  | 5
COc1ccc(OC)c(Sc2nc3c(N)ncnc3n2CCC2CC(C)(C)NC(C)(C)C2)c1 [Example 361, 8-[(2,5-Dimethoxyphenyl)thio]-9-[2-(2,2,6,6-tetramethylpiperidin-4-yl)ethyl]-9H-purin-6-amine] | 2900 | 
CCOc1ccc(OCC)c(Sc2nc3c(N)ncnc3n2CCC2CCN(C(=O)OC(C)(C)C)CC2)c1 [Example 362, tert-Butyl 4-(2-{6-amino-8-[(2,5-diethoxyphenyl)thio]-9H-purin-9-yl}ethyl)piperidine-1-carboxylate] | > 25000 | 
Nc1ncnc2c1nc(Sc1cc3c(cc1Br)OCO3)n2CCC1CCN(C=O)CC1 [Example 363, 4-(2-{6-Amino-8-[(6-bromo-1,3-benzodioxol-5-yl)thio]-9H-purin-9-yl}ethyl)piperidine-1-carbaldehyde] | 300 | 
CC(C)(C)OC(=O)N1CCOC(CCn2c(Sc3cc4c(cc3Br)OCO4)nc3c(N)ncnc32)C1 (stereo not shown) [Example 367, tert-Butyl 2-(2-{6-amino-8-[(6-bromo-1,3-benzodioxol-5-yl)thio]-9H-purin-9-yl}ethyl)morpholine-4-carboxylate] | > 25000 | 
COc1ccc(OC)c(Sc2nc3c(N)ncnc3n2CCC2CCCCN2S(C)(=O)=O)c1 (stereo not shown) [Example 371, 8-[(2,5-Dimethoxyphenyl)thio]-9-{2-[1-(methylsulfonyl)piperidin-2-yl]ethyl}-9H-purin-6-amine] | 700 | 
Nc1ncnc2c1nc(Sc1cc3c(cc1Br)OCO3)n2CCn1ccnc1 [Example 381, 8-[(6-Bromo-1,3-benzodioxol-5-yl)thio]-9-[2-(1H-imidazol-1-yl)ethyl]-9H-purin-6-amine] | 390 | 
CC(=O)N1CCN(CCn2c(Sc3cc4c(cc3Br)OCO4)nc3c(N)ncnc32)CC1 [Example 382, 9-[2-(4-Acetylpiperazin-1-yl)ethyl]-8-[(6-bromo-1,3-benzodioxol-5-yl)thio]-9H-purin-6-amine] | 140 | 
COc1ccc(OC)c(Sc2nc3c(N)ncnc3n2CCC2(F)C(F)(F)C(F)(F)C(F)(F)C(F)(F)C2(F)F)c1 [Example 384, 8-[(2,5-Dimethoxyphenyl)thio]-9-[2-(undecafluorocyclohexyl)ethyl]-9H-purin-6-amine] | > 1000 | 
CC(C)(C)OC(=O)N1CCC(=CCn2c(Sc3cc4c(cc3Br)OCO4)nc3c(N)ncnc32)CC1 [Example 390, tert-Butyl 4-(2-{6-amino-8-[(6-bromo-1,3-benzodioxol-5-yl)thio]-9H-purin-9-yl}ethylidene)piperidine-1-carboxylate] | 310 | 
CC(C)(C)OC(=O)N1CCC[C@@H](CCn2c(Sc3cc4c(cc3Br)OCO4)nc3c(N)ncnc32)C1 [Example 391, tert-Butyl (3S)-3-(2-{6-amino-8-[(6-bromo-1,3-benzodioxol-5-yl)thio]-9H-purin-9-yl}ethyl)piperidine-1-carboxylate] | 1200 | 

The next lines start with the values.

IC50 [nM] | % Inhibition at 5 μM Compound Concentration [%] | SMILES
> 25000 |  | CN1CCCC1CCn1c(Sc2cc3c(cc2Br)OCO3)nc2c(N)ncnc21 (stereo not shown) [Example 355, 8-[(6-Bromo-1,3-benzodioxol-5-yl)thio]-9-[2-(1-methylpyrrolidin-2-yl)ethyl]-9H-purin-6-amine]
 | 0 | Nc1ncn(CCC23CC4CC(CC(C4)C2)C3)c2nc(Sc3cc4c(cc3Br)OCO4)nc1-2 [Example 357, 3-[2-(1-Adamantyl)ethyl]-8-[(6-bromo-1,3-benzodioxol-5-yl)thio]-3H-purin-6-amine]
102 |  | CC(=O)N1CCC(CCn2c(Sc3cc4c(cc3Br)OCO4)nc3c(N)ncnc32)CC1 [Example 364, 9-[2-(1-Acetylpiperidin-4-yl)ethyl]-8-[(6-bromo-1,3-benzodioxol-5-yl)thio]-9H-purin-6-amine]
 | 31 | CC(=O)N1CCC(CCn2cnc(N)c3nc(Sc4cc5c(cc4Br)OCO5)nc2-3)CC1 [Example 365, 3-[2-(1-Acetylpiperidin-4-yl)ethyl]-8-[(6-bromo-1,3-benzodioxol-5-yl)thio]-3H-purin-6-amine]
 | 20 | CS(=O)(=O)N1CCC(CCn2cnc(N)c3nc(Sc4cc5c(cc4Br)OCO5)nc2-3)CC1 [Example 366, 8-[(6-Bromo-1,3-benzodioxol-5-yl)thio]-3-{2-[1-(methylsulfonyl)piperidin-4-yl]ethyl}-3H-purin-6-amine]
35 |  | CS(=O)(=O)N1CCCC(CCn2c(Sc3cc4c(cc3Br)OCO4)nc3c(N)ncnc32)C1 (stereo not shown) [Example 369, 8-[(6-Bromo-1,3-benzodioxol-5-yl)thio]-9-{2-[1-(methylsulfonyl)piperidin-3-yl]ethyl}-9H-purin-6-amine]
600 |  | CS(=O)(=O)N1CCCC(CCn2cnc(N)c3nc(Sc4cc5c(cc4Br)OCO5)nc2-3)C1 (stereo not shown) [Example 370, 8-[(6-Bromo-1,3-benzodioxol-5-yl)thio]-3-{2-[1-(methylsulfonyl)piperidin-3-yl]ethyl}-3H-purin-6-amine]
100 |  | CS(=O)(=O)N1CCCCC1CCn1c(Sc2cc3c(cc2Br)OCO3)nc2c(N)ncnc21 (stereo not shown) [Example 372, 8-[(6-Bromo-1,3-benzodioxol-5-yl)thio]-9-{2-[1-(methylsulfonyl)piperidin-2-yl]ethyl}-9H-purin-6-amine]
 | 15 | CS(=O)(=O)N1CCCCC1CCn1cnc(N)c2nc(Sc3cc4c(cc3Br)OCO4)nc1-2 (stereo not shown) [Example 373, 8-[(6-Bromo-1,3-benzodioxol-5-yl)thio]-3-{2-[1-(methylsulfonyl)piperidin-2-yl]ethyl}-3H-purin-6-amine]
240 |  | CS(=O)(=O)N1CCC(CCn2c(Sc3cc4c(cc3Br)OCO4)nc3c(N)ncnc32)CC1 [Example 378, 8-[(6-Bromo-1,3-benzodioxol-5-yl)thio]-9-{2-[1-(methylsulfonyl)piperidin-4-yl]ethyl}-9H-purin-6-amine]
 | 4 | Nc1ncn(CCn2ccnc2)c2nc(Sc3cc4c(cc3Br)OCO4)nc1-2 [Example 380, 8-[(6-Bromo-1,3-benzodioxol-5-yl)thio]-3-[2-(1H-imidazol-1-yl)ethyl]-3H-purin-6-amine]
21000 |  | CC(=O)N1CCN(CCn2cnc(N)c3nc(Sc4cc5c(cc4Br)OCO5)nc2-3)CC1 [Example 383, 3-[2-(4-Acetylpiperazin-1-yl)ethyl]-8-[(6-bromo-1,3-benzodioxol-5-yl)thio]-3H-purin-6-amine]
110 |  | CCCN1CCCCC1CCn1c(Sc2cc3c(cc2Br)OCO3)nc2c(N)ncnc21 (stereo not shown) [Example 386, 8-[(6-Bromo-1,3-benzodioxol-5-yl)thio]-9-[2-(1-propylpiperidin-2-yl)ethyl]-9H-purin-6-amine]
> 8000 |  | Nc1ncnc2c1nc(Sc1cc3c(cc1Br)OCO3)n2CCC1CCN(S(=O)(=O)C(F)(F)F)CC1 [Example 387, 8-[(6-Bromo-1,3-benzodioxol-5-yl)thio]-9-(2-{1-[(trifluoromethyl)sulfonyl]piperidin 4-yl}ethyl)-9H-purin-6-amine]
 | 13 | Nc1ncn(CCC2CCN(S(=O)(=O)C(F)(F)F)CC2)c2nc(Sc3cc4c(cc3Br)OCO4)nc1-2 [Example 388, 8-[(6-Bromo-1,3-benzodioxol-5-yl)thio]-3-(2-{1-[(trifluoromethyl)sulfonyl]piperidin 4-yl}ethyl)-3H-purin-6-amine]
 | 38 | CC(C)(C)OC(=O)N1CCC(=CCn2cnc(N)c3nc(Sc4cc5c(cc4Br)OCO5)nc2-3)CC1 [Example 389, tert-Butyl 4-(2-{6-amino-8-[(6-bromo-1,3-benzodioxol-5-yl)thio]-3H-purin-3-yl}ethylidene)piperidine-1-carboxylate]
2900 |  | CC(C)(C)OC(=O)N1CCC[C@H](CCn2c(Sc3cc4c(cc3Br)OCO4)nc3c(N)ncnc32)C1 [Example 392, tert-Butyl (3R)-3-(2-{6-amino-8-[(6-bromo-1,3-benzodioxol-5-yl)thio]-9H-purin-9-yl}ethyl)piperidine-1-carboxylate]
 | 0 | CC(C)(C)OC(=O)N1CCC[C@H](CCn2cnc(N)c3nc(Sc4cc5c(cc4Br)OCO5)nc2-3)C1 [Example 393, tert-Butyl (3R)-3-(2-{6-amino-8-[(6-bromo-1,3-benzodioxol-5-yl)thio]-3H-purin-3-yl}ethyl)piperidine-1-carboxylate]
700 |  | CC(C)(C)OC(=O)N1CCCC[C@@H]1CCn1c(Sc2cc3c(cc2Br)OCO3)nc2c(N)ncnc21 [Example 394, tert-Butyl (2R)-2-(2-{6-amino-8-[(6-bromo-1,3-benzodioxol-5-yl)thio]-9H-purin-9-yl}ethyl)piperidine-1-carboxylate]
 | 0 | CC(C)(C)OC(=O)N1CCCC[C@@H]1CCn1cnc(N)c2nc(Sc3cc4c(cc3Br)OCO4)nc1-2 [Example 395, tert-Butyl (2R)-2-(2-{6-amino-8-[(6-bromo-1,3-benzodioxol-5-yl)thio]-3H-purin-3-yl}ethyl)piperidine-1-carboxylate]
